A word on the Cmax: it is the maximum level reached in the sampled fluid or tissue. For orientation: Vz means the apparent volume that relates the amount in the body to the concentration in plasma or blood. Read a high Vz as wide distribution into tissue. For orientation: AUC(0-t) means exposure summed from dosing to a finite time, without extrapolation to infinity. As a reminder, the MRT is a mean duration of stay, worked out from the concentration-time curve. In general, clearance refers to a measure of how efficiently the substance is removed, as volume per time. The low end stands for a low capacity for elimination, the high end for a high capacity for elimination.

Data on two compounds can be found in PMC3989846 (Malaria Journal, 2014).

This data set is described as follows: Plasma pharmacokinetics after single intravenous or intragastric dose. Type of data set: in vivo, male ICR mice. Conditions: for Cmax / AUC / AUC(0-t) / MRT / Tmax / bioavailability / clearance / Vd / half-life: ICR, mouse; for AUC: read-out: AUCinfininty; for bioavailability: intragastric 20 mg/kg vs intravenous 5 mg/kg, read-out: Absolute bioavailability; for Vd: read-out: Vz; for half-life: read-out: t1/2 elimination (converted). As to the method:
PK studies were performed using both intravenous (IV) and intragastric (IG) administration. For each time point to be acquired, three male ICR mice per time-point, aged seven weeks, were dosed at either PQ or TQ at 5 mg/kg (IV) or 20 mg/kg (IG). Drug vehicle for IV studies was 0.9% saline solution, and the formulated drugs were administered in a volume of 100 μL/20 g of body weight. For IG dosing, the drug vehicle was 0.5% HECT, administered at 100 μL/20 g. At each time point, plasma and liver samples were collected. Whole blood was collected by cardiac puncture. […] Following the separation of appropriate aliquots, plasma was obtained from the whole blood via centrifugation. All liquid and tissue samples were immediately preserved on dry ice and lately stored at -80°C until analytical work was performed.
Sample was prepared by adding twice the normal volume of acetonitrile containing indomethacin internal standard (IS). The samples were mixed for 1 minute, centrifugation for 5 minutes, and the supernatant was transferred to an autosampler injection vial prior to separation by LC/MS/MS. Standard curve and quality control (QC) samples were generated by spiking interference free mouse plasma samples with known amounts of PQ, TQ and IS. Standard curve, QC, and assay samples were prepared and then 40 μL aliquots were injected into the LC/MS/MS system for chromatographic separation and subsequent mass spectrometric detection.
Chromatography was performed using a Surveyor pump (Thermo Scientific, Waltham, MA) with Waters XTerra MS C18 50 mm × 2.1 mm id, 3.5 μm particle size columns (Waters Corp., Milford, MA). Mobile phase consisted of a water/0.1% formic acid (Solvent A)/acetonitrile/0.1% formic acid (Solvent B) gradient. […] Flow rate was 300 μL/min. Samples were injected using an HTC PAL autosampler (LEAP Technologies, Carrboro, NC). Tandem mass spectrometry was performed using a TSQ Quantum AM (Thermo Scientific).
Drug concentrations were generated for each sample taken from animals dosed with both test drugs. A measured plasma and liver drug concentration vs. time curve was produced, in graphic and tabular form, for each subject on both linear/linear and log/linear scales, for the parent compound. Mean plasma drug concentration vs. time curves were also prepared separately. For the determination of initial approach to PK parameters of TQ and PQ in plasma and liver tissues after systemic application, a non-compartmental analysis was performed using Phoenix (version 6.1; Pharsight Corp., Mountain View, CA). Maximum plasma and liver concentration (Cmax), and time to maximum concentration (tmax) of TQ and PQ were obtained from the plasma and liver drug concentration-time curves. The elimination half-life (t1/2) was calculated from In2/kel, which is the elimination rate constant calculated from the log concentration-time plot. The area under the curve (AUC) and the area under the first moment curve (AUMC) were determined by the linear trapezoidal rule with extrapolation to infinity based on the concentration of the last time point divided by the terminal rate constant. Mean clearance rate (CL) was determined by dividing the dose by the AUCinf for intravenous injection for plasma samples. Absolute bioavailability was calculated by taking the dose-corrected area under the curve (AUC) from non-intravenous dosing divided by the AUC derived from intravenous dosing. Mean residence time (MRT) was determined by dividing the area under the first moment curve (AUMC) by AUC. The volume of the central compartment (Vz) and volume of the tissue compartment (Vz/F) were calculated as the product of CL and MRT.

Setting [1] is: male, in vivo, po, intragastric 20 mg/kg, plasma.
Setting [2] is: male, in vivo, intravenous 5 mg/kg, plasma.
[3] abbreviates: male, po, intragastric 20 mg/kg, plasma.
Setting [4] is: male, intravenous 5 mg/kg, plasma.

Where two headings read alike, the source gives them in different places.

`COc1cc(NC(C)CCCN)c2ncccc2c1` (centres unmarked) [Primaquine, primaquine]: the peak level (in vivo, intravenous 5 mg/kg, plasma, male mice) (Cmax) was 1210 ± 210 ng/mL. Also, where the note is “intragastric 20 mg/kg, plasma”, the Cl worked out at 965.7 ± 342 mL/min/kg and the Vz is 154.66 ± 61.83 L/kg. Besides, under “intravenous 5 mg/kg, plasma, 5 mg/kg”, the AUCinfininty is 1260 ± 140 ng·h/mL. Further, the AUC (male, in vivo, iv, 5 mg/kg, intravenous 5 mg/kg, plasma) stood at 1200 ng·h/mL. Also, the AUC (male, in vivo, po, 20 mg/kg, intragastric 20 mg/kg, plasma) turned out to be 1310 ± 410 ng·h/mL. Besides, under setting [1], the AUC(0-t) worked out at 1260 ± 400 ng·h/mL, the Cmax was found to be 530 ± 70 ng/mL and the MRT was 2.28 ± 0.1 h. The Tmax (male, in vivo, po, intragastric 20 mg/kg, plasma, read-out: Tmax) came to 0.5 h. Moreover, under “male, in vivo, absorbed from the gastrointestinal tract, mice, read-out: time to peak plasma levels”, the Tmax is at most 0.0833 h. Also, the bioavailability (male, in vivo, plasma) came to 28.3 ± 6.93%. Under setting [2], the area under the curve AUC(0-t) is 1200 ± 130 ng·h/mL, the MRT is 0.68 ± 0.02 h, the clearance is 69.8 mL/min/kg and the Vd was found to be 3.85 ± 0.71 L/kg. For the same compound, the Tmax (male, in vivo, intravenous 5 mg/kg, plasma, read-out: Tmax) was found to be 0.08 h.
In the case of `COc1cc(C)c2c(Oc3cccc(C(F)(F)F)c3)c(OC)cc(NC(C)CCCN)c2n1` (centres unmarked) [Tafenoquine, tafenoquine], where the note is “intravenous 5 mg/kg, plasma, male mice”, the Cmax is 660 ± 130 ng/mL. For the setting “intragastric 20 mg/kg, plasma”, the Cl came out at 2.5 ± 0.5 mL/min/kg and the Vz worked out at 10.60 ± 1.22 L/kg. The bioavailability (male, oral, plasma) was found to be 101 ± 37.5%. In addition, under setting [3], the area under the curve AUC(0-t) stood at 138000 ± 24400 ng·h/mL, the Cmax turned out to be 2040 ± 590 ng/mL, the MRT is 62.1 ± 2.3 h and the AUC is 139000 ± 24900 ng·h/mL. For the same compound, the half-life under setting [3] was 50.9 ± 4.23 h. For the same compound, the Tmax (male, po, intragastric 20 mg/kg, plasma, read-out: Tmax) came out at 11.3 ± 5.37 h. Moreover, under setting [4], the AUC(0-t) came to 29600 ± 6740 ng·h/mL, the MRT stood at 55.9 ± 3.86 h, the clearance is 2.83 mL/min/kg and the AUC is 30100 ± 6650 ng·h/mL. Besides, under setting [4], the Vd is 16.8 ± 6.44 L/kg and the half-life was 66.3 ± 10.3 h. For the same compound, the Tmax (male, intravenous 5 mg/kg, plasma, read-out: Tmax) is 1.36 ± 1.11 h. Moreover, the “absolute bioavailability of oral TQ, fold greater than oral PQ” value (oral) is on record as 3.5 fold. Also, the “clearance as % of the hepatic blood flow” value (oral CL 0.15 L/hours/kg) amounted to 3%. Also, where the note is “oral, plasma”, the “AUCinf of oral TQ, fold higher than oral PQ” value is 94 fold; the “Cmax of oral TQ, fold higher than oral PQ” value was “approximately 4 fold”; the “elimination clearance of oral TQ, fold slower than oral PQ” value was 370 fold. In addition, for the setting “oral, plasma, mice”, the “absorption rate of oral TQ, fold slower than PQ” value turned out to be 22.7 fold. Moreover, the “duration of quantifiable concentrations” value (single 20 mg/kg dose) was “more than two weeks”.
